According to patent US20150119251A1, “AGRICULTURAL PLANT-PROTECTING AGENTS CONTAINING DIPEPTIDE DERIVATIVE AS ACTIVE INGREDIENT” (REPUBLIC OF KOREA (RURAL DEVELOPMENT ADMINISTRATION), priority 2012, published 2015):
Peptide text beside a SMILES is read from it. * marks the point of attachment. Boc = CC(C)(C)OC(=O)*; OtBu = CC(C)(C)O*

System: tobacco bacterial rot (Pectobacterium carotovorum)
Assay: Suppression of tobacco bacterial rot
Format: in vivo, Pectobacterium carotovorum SCC1
Protocol: A tobacco or cucumber was sown in a plastic pot with a diameter of 10 cm×13 cm, and then, 12 pots were added in a yellow box. After seeding, 100 μL was inoculated to the cotyledons of cucumber or tobacco, in which first leaf was started to come out. The test compounds were dissolved in 20% methanol to make a stock solution, and then, the stock solution was diluted to the concentrations of 1, 10, and 100 ppm.
After 7 days, the pathogen of a plant bacterial rot (Pectobacterium carotovorum SCC1) was cultured in a TSA medium for 27 hours; and then, the cultured pathogen was sprayed in a concentration of 10^8 cfu/mL to the plant leaves, and cultured at 30° C. for 3 days. The plant anthracnose germ (Colletotrichum orbiculare) was cultured in a GBA (Green bean agar) medium to induce spores for about 2 to 3 weeks. The germ was sprayed in a concentration of 10^5 cell/mL and then cultured at 26° C. for 1 day. When fourth or fifth leaf came out, 200 μL of each of the test compounds was inoculated to third leaf. After 7 days, the pathogen of the plant bacterial rot was sprayed to the plant leaves in the concentration of 10^8 cfu/mL, and then cultured at 30° C. for 3 days.
The investigation was performed with naked eyes, and the lesion relative areas were investigated until 0 to 100% according to the shortness degrees of the bacterial rot. The anthracnose was investigated by counting the number of lesions occurred on the leaves.

| Compound | Lesion outbreak rate (Table 3, tobacco, 1 ppm) [%] | Lesion outbreak rate (Table 3, tobacco, 10 ppm) [%] | Lesion outbreak rate (Table 3, tobacco, 100 ppm) [%] | Lesion outbreak rate (Table 6, tobacco, 1 ppm) [%] | Lesion outbreak rate (Table 6, tobacco, 10 ppm) [%] | Lesion outbreak rate (Table 6, tobacco, 100 ppm) [%] | other results |
| --- | --- | --- | --- | --- | --- | --- | --- |
| COC(=O)[C@H](CC(C)C)NC(=O)[C@H](CO)NC(=O)OC(C)(C)C [Compound 1] (Boc-Ser-Leu-OMe) | 73 | 10 | 57 |  |  |  |  |
| COC(=O)[C@H](CC(C)C)NC(=O)[C@@H](N)CO [Compound 2] (H-Ser-Leu-OMe) | 60 | 39 | 41 |  |  |  |  |
| COC(=O)CNC(=O)[C@H](CC(C)C)NC(=O)OC(C)(C)C [Compound 3] (Boc-Leu-Gly-OMe) | 13 | 68 | 80 |  |  |  |  |
| CCOC(=O)[C@H](C)NC(=O)[C@H](CC(C)C)NC(=O)OC(C)(C)C [Compound 9] (Boc-Leu-Ala-OEt) | 90 | 53 | 82 |  |  |  |  |
| CCOC(=O)[C@H](C)NC(=O)[C@@H](N)CC(C)C [Compound 10] (H-Leu-Ala-OEt) | 80 | 73 | 87 |  |  |  |  |
| CC(C)C[C@H](N)C(=O)N[C@@H](C)C(=O)O [Compound 11] (H-Leu-Ala-OH) | 30 | 46 | 21 |  |  |  |  |
| COC(=O)[C@H](C)NC(=O)[C@@H](NC(=O)OC(C)(C)C)C(C)C [Compound 12] (Boc-Val-Ala-OMe) |  |  |  | 45 | 33 | 25 |  |
| COC(=O)[C@H](C)NC(=O)[C@H](C)NC(=O)OC(C)(C)C [Compound 13] (Boc-Ala-Ala-OMe) |  |  |  | 100 | 100 | 28 |  |
| COC(=O)[C@H](Cc1c[nH]c2ccccc12)NC(=O)CNC(=O)OC(C)(C)C [Compound 16] (Boc-Gly-Trp-OMe) |  |  |  | 25 | 25 | 53 |  |
| COC(=O)[C@H](Cc1c[nH]c2ccccc12)NC(=O)[C@@H](NC(=O)OC(C)(C)C)C(C)C [Compound 17] (Boc-Val-Trp-OMe) |  |  |  | 100 | 25 | 100 |  |
| COC(=O)CNC(=O)CNC(=O)OC(C)(C)C [Compound 18] (Boc-Gly-Gly-OMe) |  |  |  | 80 | 75 | 68 |  |
| COC(=O)[C@@H]1CCCN1C(=O)[C@H](Cc1ccccc1)NC(=O)OC(C)(C)C [Compound 19] (Boc-Phe-Pro-OMe) |  |  |  | 49 | 42 | 50 |  |
| COC(=O)[C@@H]1CCCN1C(=O)[C@H](C)NC(=O)OC(C)(C)C [Compound 20] (Boc-Ala-Pro-OMe) |  |  |  | 56 | 63 | 51 |  |
| COC(=O)[C@@H]1CCCN1C(=O)[C@@H](NC(=O)OC(C)(C)C)C(C)C [Compound 21] (Boc-Val-Pro-OMe) |  |  |  | 37 | 46 | 35 |  |
| COC(=O)[C@@H]1CCCN1C(=O)[C@H](CC(C)C)NC(=O)OC(C)(C)C [Compound 22] (Boc-Leu-Pro-OMe) |  |  |  | 35 | 24 | 46 |  |
| COC(=O)[C@@H]1CCCN1C(=O)[C@H](CCC(N)=O)NC(=O)OC(C)(C)C [Compound 23] (Boc-Gln-Pro-OMe) |  |  |  | 25 | 52 | 36 |  |
| COC(=O)C1CCCN1C(=O)C(NC(=O)OC(C)(C)C)C(C)O (stereo not drawn) [Compound 24] (Boc-Thr-Pro-OMe; configuration not given here) |  |  |  |  |  |  | Lesion outbreak rate (Table 4, tobacco, 1 ppm): 13%; Lesion outbreak rate (Table 4, tobacco, 10 ppm): 65%; Lesion outbreak rate (Table 4, tobacco, 100 ppm): 33% |
| COC(=O)[C@@H]1CCCN1C(=O)[C@H](CC(=O)OC(C)(C)C)NC(=O)OC(C)(C)C [Compound 25] (Boc-Asp(OtBu)-Pro-OMe) |  |  |  |  |  |  | Lesion outbreak rate (Table 4, tobacco, 1 ppm): 50%; Lesion outbreak rate (Table 4, tobacco, 10 ppm): 70%; Lesion outbreak rate (Table 4, tobacco, 100 ppm): 50% |
